Laboratory results: patent publication US20110173718A1, “HERBICIDE TOLERANT PLANTS” (SYNGENTA CROP PROTECTION, INC., priority 2008, published 2011)

Key:
[1] = system: Arabidopsis HST transgenic tobacco plants; assay: Glasshouse spray test, Arabidopsis HST transgenic tobacco; assay type: in vivo; conditions: 500 g/ha, 14 DAT
Excerpt: For example the Arabidopsis HST SEQ ID # 11 is cloned behind a double 35s CMV promoter sequence and a TMV translational enhancer sequence and in front of the 3′ terminator from the nos gene. This expression cassette is ligated into pMJB1 (described in WO98/20144) and then into pBIN19 and then transformed into Agrobacterium tuniqfaciens strains LBA4404 prior to plant transformation.
For example, the full length Arabidopsis HST seq ID # 11 is fused to the TMV translational enhancer sequence (SEQ ID #33) by overlapping PCR and, at the same time, 5′ XhoI site and a 3′KpnI site are added by PCR. Site-directed mutagenesis is performed to remove an internal XhoI site. The TMV/HPPD fusion is removed from the pBIN19 by digestion with XhoI/KpnI and is replaced by the TMV/HST fusion (SEQ ID #34). The TMV/HST fusion is now cloned behind a double 35s promoter and in front of the 3′ terminator from the nos gene. Again the modified pBIN19 vector (‘pBinAT HST’) is then transformed into Agrobacterium tumefaciens strain LBA4404.
A master plate of Agrobacterium tumefaciens containing the binary vector pBinAT HST (described above) or analogous binary vector comprising a different HST is used to inoculate 10 ml LB containing 100 mg/1 Rifampicin plus 50 mg/1 Kanamycin using a single bacterial colony. This is incubated overnight at 28° C. shaking at 200 rpm. This entire overnight culture is used to inoculate a 50 ml volume of LA (plus antibiotics). Again this is cultured overnight at 28° C. shaking at 200 rpm. The Agrobacterium cells are pelleted by centrifuging at 3000 rpm for 15 minutes then resuspended in MS medium with 30 g/1 sucrose, pH 5.9 to an OD ([…])=0.6. This suspension is dispensed in 25 ml aliquots into petri dishes.
Clonal micro-propagated tobacco shoot cultures are used to excise young (not yet fully expanded) leaves. The mid rib and outer leaf margins are removed and discarded, the remaining lamina is cut into 1 cm squares. These are transferred to the Agrobacterium suspension for 20 minutes. Explants are then removed, dabbed on sterile filter paper to remove excess suspension then transferred to NBM medium (MS medium, 30 g/1 sucrose, 1 mg/1 BAP, 0.1 mg/1 NAA, pH 5.9, solidified with 8 g/1 Plantagar), with the abaxial surface of each explant in contact with the medium. Approximately 7 explants are transferred per plate, which are then sealed then maintained in a lit incubator at 25° C., 16 hour photoperiod for 3 days.
Explants are then transferred to NBM medium containing 100 mg/1 Kanamycin plus antibiotics to prevent further growth of Agrobacterium (200 mg/1 timentin with 250 mg/1 carbenicillin). Further subculture on to this same medium is then performed every 2 weeks.
As shoots start to regenerate from the callusing leaf explants these are removed to Shoot elongation medium (MS medium, 30 g/1 sucrose, 8 g/1 Plantagar, 100 mg/1 Kanamycin, 200 mg/1 timentin, 250 mg/1 carbenicillin, pH 5.9). Stable transgenic plants readily root within 2 weeks. To provide multiple plants per event to ultimately allow more than one herbicide test per transgenic plant all rooting shoots are micropropagated to generate 3 or more rooted clones.
Putative transgenic plants that are rooting and show vigorous shoot growth on the medium incorporating Kanamycin are analysed by PCR using primers that amplified a 500 bp fragment within the Arabidopsis HST transgene.
Rooted transgenic T0 plantlets are transferred from agar and potted into 50% peat, 50% John Innes soil no 3 or, for example, MetroMix® 380 soil (Sun Gro Horticulture, Bellevue, Wash.) with slow-release fertilizer in 3 inch round or 4 inch square pots and left regularly watered to establish for 8-12 d in the glass house. Glass house conditions are about 24-27° C. day; 18-21° C. night and approximately a 14 h (or longer in UK summer) photoperiod. Humidity is ˜65% and light levels up to 2000 μmol/m^2 at bench level. […]

[2] = system: wild-type (WT) Samsun tobacco; assay: Glasshouse spray test, wild-type tobacco; assay type: in vivo; conditions: 500 g/ha; 14 DAT; WT control, reps
Protocol: Rooted transgenic T0 plantlets are transferred from agar and potted into 50% peat, 50% John Innes soil no 3 or, for example, MetroMix® 380 soil (Sun Gro Horticulture, Bellevue, Wash.) with slow-release fertilizer in 3 inch round or 4 inch square pots and left regularly watered to establish for 8-12 d in the glass house. Glass house conditions are about 24-27° C. day; 18-21° C. night and approximately a 14 h (or longer in UK summer) photoperiod. Humidity is ˜65% and light levels up to 2000 μmol/m^2 at bench level. Once new tissue emerges and plants they have reached the 2-4 leaf stage some of the clones from each event are sprayed with test chemicals dissolved in water with 0.2-0.25% X-77 surfactant and sprayed from a boom on a suitable track sprayer moving at 2 mph in a DeVries spray chamber with the nozzle about 2 inches from the plant tops. Spray volume is suitably 25 gallons per acre or, for example, […].
Test chemicals are, for example, compound 2.3 at 500 g/ha. At the same time that transgenic plants are sprayed so too are w/t Samsun tobacco plants grown from seed as well as non-transgenic plants regenerated from tissue culture and non-transgenic tissue culture escapes. Damage is assessed versus unsprayed control plants of like size and development.
6 Seed from w/t Samsun tobacco and 8 T1 seed from events B8 and G9 are also planted out in 3 inch pots, grown on for 7 to 12 d and then, as described in the foregoing examples, the plantlets spray tested for resistance to various chemicals and assessed at 14 DAT. Chemicals are formulated in 0.2% X77 and sprayed at a spray volume of 200 l/ha.
Seed of wild-type tobacco plants, C2 tobacco plants and of the T1 progeny of a further Arabidopsis-HST expressing tobacco line, D2 were planted out in 3 inch pots, grown on, sprayed with compounds 1.1, 2.30 and 3.6 at the rates shown in table 5. Percent damage scores were assessed at 7 DAT. Aside from the presumptive non-transgenic segregants the D2 line containing the Arabidopis HST expression construct offered the highest level of tolerance to the two HST herbicides with the Psuedomonas HPPD, C2 line, offering only marginal tolerance under the conditions of this test.
Single copy events amongst the T1 plant lines are identified by their 3:1 segregation ratio (wrt kanamycin and or herbicide) and by quantitative RT-PCR. Seed from the thus selected T1 tobacco (var Samsun) lines are sown in 3 inch diameter pots containing 50% peat, 50% John Innes soil no 3. After growth to the 3 leaf stage, plants are sprayed, as described above, in order to test for herbicide tolerance relative to like-treated non-transgenic tobacco plants.
Control tobacco plants and transgenic T1 plants expressing either the Pseudomonas or the wheat HPPD gene are sprayed at 37, 111, 333 and 1000 g/ha rates of HST inhibitors and, for example, compound 2.3.
Plants are assessed and scored for % damage at 16 DAT.

Measured: herbicide % damage

CCNc1nc(Cl)nc(NC(C)C)n1 [Atrazine, reference compound]
100%: [1]; T1 progeny of line B8, reps | [1]; T1 progeny of line G9-2, reps | [2]
